We go through 26 compounds from BindingDB's records for doi:10.1021/jm100555f (Harvard Medical School, 2010).

Some results are limits rather than exact numbers.

The assay in a line: Inhibition of Bcr-Abl in mouse BA/F3 cells.
For the compound `FC(F)(F)Oc1ccc(Nc2ccnc(NCCN3CCOCC3)n2)cc1` [N2-(2-morpholinoethyl)-N4-(4-(trifluoromethoxy)phenyl)pyrimidine-2,4-diamine], the EC50 was > 10 µM.
Consider `FC(F)(F)Oc1ccc(Nc2cncc(NCCN3CCOCC3)n2)cc1` [N2-(2-morpholinoethyl)-N6-(4-(trifluoromethoxy)phenyl)pyrazine-2,6-diamine], for which the EC50 was > 10 µM.
The same measure for `FC(F)(F)Oc1ccc(Nc2ccc(NCCN3CCOCC3)nn2)cc1` [N3-(2-morpholinoethyl)-N6-(4-(trifluoromethoxy)phenyl)pyridazine-3,6-diamine]: > 10 µM; for `FC(F)(F)Oc1ccc(Nc2nccc(NCCN3CCOCC3)n2)cc1` [N4-(2-morpholinoethyl)-N2-(4-(trifluoromethoxy)phenyl)pyrimidine-2,4-diamine]: > 10 µM; for `FC(F)(F)Oc1cccc(Nc2cc(NCCN3CCOCC3)ncn2)c1` [N4-(2-morpholinoethyl)-N6-(3-(trifluoromethoxy)phenyl)pyrimidine-4,6-diamine]: > 10 µM.
The same measure for `FC(F)(F)Oc1ccc(CNc2cc(NCCN3CCOCC3)ncn2)cc1` [N4-(2-morpholinoethyl)-N6-(4-(trifluoromethoxy)benzyl)pyrimidine-4,6-diamine]: > 10 µM; for `FC(F)(F)Oc1ccc(Nc2cc(NCCN3CCOCC3)ncn2)cc1` [N4-(2-morpholinoethyl)-N6-(4-(trifluoromethoxy)phenyl)pyrimidine-4,6-diamine]: 0.72 µM.
The same measure for `FC(F)(F)c1ccc(Nc2cc(NCCN3CCOCC3)ncn2)cc1` [N4-(2-morpholinoethyl)-N6-(4-(trifluoromethyl)phenyl)pyrimidine-4,6-diamine]: 0.92 µM; for `FC(F)(F)Oc1ccc(Nc2cc(NCCCN3CCOCC3)ncn2)cc1` [N4-(3-morpholinopropyl)-N6-(4-(trifluoromethoxy)phenyl)pyrimidine-4,6-diamine]: 4.47 µM; for `COc1ccc(Nc2cc(NCCN3CCOCC3)ncn2)cc1` [N4-(4-methoxyphenyl)-N6-(2-morpholinoethyl)pyrimidine-4,6-diamine]: > 10 µM.
Consider `CN(c1ccc(OC(F)(F)F)cc1)c1cc(NCCN2CCOCC2)ncn1` [N4-methyl-N6-(2-morpholinoethyl)-N4-(4-(trifluoromethoxy)phenyl)pyrimidine-4,6-diamine], for which the EC50 is > 10 µM.
The same measure for `O=C(NCCO)c1cc2c(Nc3ccc(OC(F)(F)F)cc3)ncnc2s1` [N-(2-Hydroxyethyl)-4-(4-(trifluoromethoxy)phenylamino)thieno[2,3-d]pyrimidine-6-carboxamide]: > 10 µM; for `O=C(NCCN1CCOCC1)c1cccc(-c2cc(Nc3ccc(OC(F)(F)F)cc3)ncn2)c1` [N-(2-morpholinoethyl)-3-(6-(4-(trifluoromethoxy)phenylamino)pyrimidin-4-yl)benzamide]: 0.42 µM; for `FC(F)(F)Oc1ccc(Oc2cc(NCCN3CCOCC3)ncn2)cc1` [N-(2-morpholinoethyl)-6-(4-(trifluoromethoxy)phenoxy)pyrimidin-4-amine]: > 10 µM.
Then `FC(F)(F)Oc1ccc(-c2cc(NCCN3CCOCC3)ncn2)cc1` [N-(2-morpholinoethyl)-6-(4-(trifluoromethoxy)phenyl)pyrimidin-4-amine], with > 10 µM.
`CS(=O)(=O)Nc1ccc(-c2cc(Nc3ccc(OC(F)(F)F)cc3)ncn2)cc1` [N-(4-(6-(4-(trifluoromethoxy)phenylamino)pyrimidin-4-yl)phenyl)methanesulfonamide] had a 50% effective concentration (EC50) of 0.04 µM.
Consider `FC(F)(F)Oc1ccc(Nc2ncnc3[nH]ccc23)cc1` [N-(4-(Trifluoromethoxy)phenyl)-7H-pyrrolo[2,3-d]pyrimidin-4-amine], for which the EC50 is > 10 µM.
The compound `FC(F)(F)Oc1ccc(Nc2ncnc3n[nH]cc23)cc1` [N-(4-(trifluoromethoxy)phenyl)-1H-pyrazolo[3,4-d]pyrimidin-4-amine] came in with a concentration giving a half-maximal response (EC50) of 1.3 µM.
In turn, `Cc1nn(C)c(C)c1-c1cc(Nc2ccc(OC(F)(F)F)cc2)ncn1` [N-(4-(trifluoromethoxy)phenyl)-6-(1,3,5-trimethyl-1H-pyrazol-4-yl)pyrimidin-4-amine] displayed an EC50 of 0.15 µM.
Then `Fc1ccc(Nc2cc(-c3ccncc3)ncn2)cc1` [N-(4-fluorophenyl)-6-(pyridin-4-yl)pyrimidin-4-amine], with > 10 µM; and `COc1ccc(Nc2cc(-c3ccncc3)ncn2)cc1` [N-(4-methoxyphenyl)-6-(pyridin-4-yl)pyrimidin-4-amine], with > 10 µM.
For the compound `CCNC(=O)c1cc2c(Nc3ccc(OC(F)(F)F)cc3)ncnc2s1` [N-ethyl-4-(4-(trifluoromethoxy)phenylamino)thieno[2,3-d]pyrimidine-6-carboxamide], the EC50 was 0.918 µM.
Then `CNC(=O)c1cccc(-c2cc(Nc3ccc(OC(F)(F)F)cc3)ncn2)c1` [N-methyl-3-(6-(4-(trifluoromethoxy)phenylamino)pyrimidin-4-yl)benzamide], with 0.34 µM.
`CN(c1ccc(OC(F)(F)F)cc1)c1cc(-c2ccncc2)ncn1` [N-methyl-6-(pyridin-4-yl)-N-(4-(trifluoromethoxy)phenyl)pyrimidin-4-amine]: the EC50 is > 10 µM.
The same measure for `COC(=O)c1cc2c(Nc3ccc(OC(F)(F)F)cc3)ncnc2s1` [methyl 4-(4-(trifluoromethoxy)phenylamino)thieno[2,3-d]pyrimidine-6-carboxylateMethyl 4-(4-(Trifluoromethoxy)-phenylamino)thieno[2,3-d]pyrimidine-6-carboxylate]: 5.6 µM; for `O=C(c1cccc(-c2cc(Nc3ccc(OC(F)(F)F)cc3)ncn2)c1)N1CCOCC1` [morpholino(3-(6-(4-(trifluoromethoxy)phenylamino)pyrimidin-4-yl)phenyl)methanone]: 0.24 µM.

By EC50 is commonly meant the concentration at which the effect is half-maximal. High values mean weaker potency, low ones greater potency.
